The record followed here is paper PMC5218480 (PLoS ONE, 2017).

In this assay the test system is MV-4-11 cells. Description: Gene expression microarray analysis (Affymetrix PrimeView) and GSEA. The following applies: ProbeSet 11752001_a_at; LIST D. It is filed as cell-based, human. On the set-up: RFU PODN (11730768_x_at) / Fold change /veh PODN (11730768_x_at) / RFU LINC00158 (11744669_a_at) / Fold change /veh LINC00158 (11744669_a_at) / RFU DUSP10 (11751237_a_at) / Fold change /veh DUSP10 (11751237_a_at) / RFU ID3 (11757404_x_at) / Fold change /veh ID3 (11757404_x_at) / RFU PLEKHG5 (11737974_s_at) / Fold change /veh PLEKHG5 (11737974_s_at) / RFU LRRC4B (11730491_at) / Fold change /veh LRRC4B (11730491_at) / RFU GIMAP4 (11747438_a_at) / Fold change /veh GIMAP4 (11747438_a_at) / RFU KRT8 (11758183_x_at) / Fold change /veh KRT8 (11758183_x_at) / RFU CNN1 (11734310_a_at) / Fold change /veh CNN1 (11734310_a_at) / RFU VPS37D (11726825_at) / Fold change /veh VPS37D (11726825_at) / RFU C10orf10 (11716522_x_at) / Fold change /veh C10orf10 (11716522_x_at) / RFU KIR2DL2 /// KIR2DL4 /// KIR2DL5A /// KIR2DL5B /// KIR2DS1 /// KIR2DS2 /// KIR2DS3 /// KIR2DS4 /// KIR3DL3 /// KIR3DL3 /// KIR3DS1 (11738374_at) / Fold change /veh KIR2DL2 /// KIR2DL4 /// KIR2DL5A /// KIR2DL5B /// KIR2DS1 /// KIR2DS2 /// KIR2DS3 /// KIR2DS4 /// KIR3DL3 /// KIR3DL3 /// KIR3DS1 (11738374_at) / RFU C1QL1 (11718748_at) / Fold change /veh C1QL1 (11718748_at) / RFU TMPRSS4 (11747572_a_at) / Fold change /veh TMPRSS4 (11747572_a_at) / RFU HAMP (11756126_x_at) / Fold change /veh HAMP (11756126_x_at) / RFU RNFT2 (11725882_a_at) / Fold change /veh RNFT2 (11725882_a_at) / RFU NR4A2 (11747474_a_at) / Fold change /veh NR4A2 (11747474_a_at) / RFU ABCC12 (11746883_a_at) / Fold change /veh ABCC12 (11746883_a_at) / RFU TMEM136 (11760407_x_at) / Fold change /veh TMEM136 (11760407_x_at) / RFU CLDN22 /// WWC2 (11732394_at) / Fold change /veh CLDN22 /// WWC2 (11732394_at) / RFU HLA-DPB1 (11760878_x_at) / Fold change /veh HLA-DPB1 (11760878_x_at) / RFU SPINT1 (11716480_a_at) / Fold change /veh SPINT1 (11716480_a_at) / RFU GAP43 (11754022_s_at) / Fold change /veh GAP43 (11754022_s_at) / RFU A4GNT (11735810_at) / Fold change /veh A4GNT (11735810_at) / RFU PRB3 (11715151_x_at) / Fold change /veh PRB3 (11715151_x_at) / RFU TUBB4B (11761932_at) / Fold change /veh TUBB4B (11761932_at) / RFU CAPN14 (11732068_a_at) / Fold change /veh CAPN14 (11732068_a_at) / RFU TMCC2 (11721928_a_at) / Fold change /veh TMCC2 (11721928_a_at) / RFU IRGQ (11745062_a_at) / Fold change /veh IRGQ (11745062_a_at) / RFU FAM174B (11720279_a_at) / Fold change /veh FAM174B (11720279_a_at) / RFU TMPRSS4 (11748680_a_at) / Fold change /veh TMPRSS4 (11748680_a_at) / RFU FAM212B (11763350_a_at) / Fold change /veh FAM212B (11763350_a_at) / RFU PLEKHG5 (11743358_a_at) / Fold change /veh PLEKHG5 (11743358_a_at) / RFU ZSCAN30 (11745921_a_at) / Fold change /veh ZSCAN30 (11745921_a_at) / RFU CMKLR1 (11741424_a_at) / Fold change /veh CMKLR1 (11741424_a_at) / RFU LOC101060620 /// MAPK8IP1 (11723275_at) / Fold change /veh LOC101060620 /// MAPK8IP1 (11723275_at) / RFU SPTSSB (11747773_x_at) / Fold change /veh SPTSSB (11747773_x_at) / RFU PRSS12 (11739890_at) / Fold change /veh PRSS12 (11739890_at) / RFU BIN1 (11741810_x_at) / Fold change /veh BIN1 (11741810_x_at) / RFU WNT11 (11732464_a_at) / Fold change /veh WNT11 (11732464_a_at) / RFU C10orf10 (11716521_a_at) / Fold change /veh C10orf10 (11716521_a_at) / RFU C5orf56 (11738089_at) / Fold change /veh C5orf56 (11738089_at) / RFU CYB561 (11721691_x_at) / Fold change /veh CYB561 (11721691_x_at) / RFU ANKRD19P (11752326_a_at) / Fold change /veh ANKRD19P (11752326_a_at) / RFU OR2T12 /// OR2T33 /// OR2T8 (11738714_s_at) / Fold change /veh OR2T12 /// OR2T33 /// OR2T8 (11738714_s_at) / RFU VCAN (11748164_a_at) / Fold change /veh VCAN (11748164_a_at) / RFU JSRP1 (11732532_at) / Fold change /veh JSRP1 (11732532_at) / RFU KRTAP10-11 (11738290_x_at) / Fold change /veh KRTAP10-11 (11738290_x_at) / RFU MYO3A (11730013_a_at) / Fold change /veh MYO3A (11730013_a_at) / RFU EBF3 (11725865_a_at) / Fold change /veh EBF3 (11725865_a_at) / RFU CAMK2N1 (11719241_x_at) / Fold change /veh CAMK2N1 (11719241_x_at) / RFU C5orf56 (11738088_a_at) / Fold change /veh C5orf56 (11738088_a_at) / RFU OLFML3 (11715873_a_at) / Fold change /veh OLFML3 (11715873_a_at) / RFU LOC100653217 /// NTM (11731650_a_at) / Fold change /veh LOC100653217 /// NTM (11731650_a_at) / RFU MAPK11 (11762145_a_at) / Fold change /veh MAPK11 (11762145_a_at) / RFU FIZ1 (11724087_x_at) / Fold change /veh FIZ1 (11724087_x_at) / RFU OASL (11726364_x_at) / Fold change /veh OASL (11726364_x_at) / RFU SOX15 (11748057_x_at) / Fold change /veh SOX15 (11748057_x_at) / RFU CD79A (11719716_a_at) / Fold change /veh CD79A (11719716_a_at) / RFU HIST1H1D (11736915_at) / Fold change /veh HIST1H1D (11736915_at) / RFU CASKIN2 (11723855_a_at) / Fold change /veh CASKIN2 (11723855_a_at) / RFU LOC730098 (11760151_x_at) / Fold change /veh LOC730098 (11760151_x_at) / RFU OR4N2 (11742367_at) / Fold change /veh OR4N2 (11742367_at) / RFU PRRT2 (11749266_a_at) / Fold change /veh PRRT2 (11749266_a_at) / RFU SNX32 (11753110_a_at) / Fold change /veh SNX32 (11753110_a_at) / RFU CDHR5 (11726645_a_at) / Fold change /veh CDHR5 (11726645_a_at) / RFU RCAN1 (11760418_a_at) / Fold change /veh RCAN1 (11760418_a_at) / RFU FAM167A (11723789_a_at) / Fold change /veh FAM167A (11723789_a_at) / RFU FAM26E (11764081_at) / Fold change /veh FAM26E (11764081_at) / RFU ISYNA1 (11749810_s_at) / Fold change /veh ISYNA1 (11749810_s_at) / RFU ACY1 (11761880_at) / Fold change /veh ACY1 (11761880_at) / RFU 11764098_at / Fold change /veh 11764098_at / RFU SAMD14 (11745864_x_at) / Fold change /veh SAMD14 (11745864_x_at) / RFU NPB (11741838_a_at) / Fold change /veh NPB (11741838_a_at) / RFU TMPRSS6 (11731388_a_at) / Fold change /veh TMPRSS6 (11731388_a_at) / RFU KRTAP10-2 (11738614_at) / Fold change /veh KRTAP10-2 (11738614_at) / RFU ARHGAP8 /// PRR5-ARHGAP8 (11727945_x_at) / Fold change /veh ARHGAP8 /// PRR5-ARHGAP8 (11727945_x_at) / RFU KRTAP5-7 /// NADSYN1 (11734609_at) / Fold change /veh KRTAP5-7 /// NADSYN1 (11734609_at) / RFU RASL12 (11751679_a_at) / Fold change /veh RASL12 (11751679_a_at) / RFU CDKN2B (11736163_a_at) / Fold change /veh CDKN2B (11736163_a_at) / RFU PRF1 (11729649_at) / Fold change /veh PRF1 (11729649_at) / RFU, ZNF638 /// ZNF638-IT1 / Fold change vs veh, ZNF638 /// ZNF638-IT1 / RFU, PANK3 / Fold change vs veh, PANK3 / RFU, SH3YL1 / Fold change vs veh, SH3YL1 / RFU, ZEB2 / Fold change vs veh, ZEB2 / RFU, NRIP1 / Fold change vs veh, NRIP1 / RFU, PTTG1IP / Fold change vs veh, PTTG1IP / RFU, CAPN2 / Fold change vs veh, CAPN2 / RFU, MED14 / Fold change vs veh, MED14 / RFU, SNORA58 / Fold change vs veh, SNORA58 / RFU, C1orf63 / Fold change vs veh, C1orf63 / RFU, LRRFIP1 / Fold change vs veh, LRRFIP1 / RFU, NDUFAF7 / Fold change vs veh, NDUFAF7 / RFU, SLC12A2 / Fold change vs veh, SLC12A2 / RFU, IBTK / Fold change vs veh, IBTK / RFU, ESF1 / Fold change vs veh, ESF1 / Fold change vs veh, TMEM50B / RFU, TAOK1 / Fold change vs veh, TAOK1 / RFU, ACBD3 / Fold change vs veh, ACBD3 / RFU, TMA16 / Fold change vs veh, TMA16 / RFU, RWDD3 / Fold change vs veh, RWDD3 / RFU, BCAT1 / Fold change vs veh, BCAT1 / RFU, EDEM3 / Fold change vs veh, EDEM3 / RFU, TMEM33 / Fold change vs veh, TMEM33 / RFU, WDR75 / Fold change vs veh, WDR75 / RFU, AHCTF1 / Fold change vs veh, AHCTF1 / RFU, TFRC / Fold change vs veh, TFRC / RFU, ZDHHC17 / Fold change vs veh, ZDHHC17 / RFU, NOM1 / Fold change vs veh, NOM1 / RFU, ARL8B / Fold change vs veh, ARL8B / RFU, ZBTB11 / Fold change vs veh, ZBTB11 / RFU, TAMM41 / Fold change vs veh, TAMM41 / RFU, KIAA1704 /// LOC100996395 / Fold change vs veh, KIAA1704 /// LOC100996395 / RFU, ING1 / Fold change vs veh, ING1 / RFU, TRMT61B / Fold change vs veh, TRMT61B / RFU, FUBP3 / Fold change vs veh, FUBP3 / RFU, TP53 / Fold change vs veh, TP53 / RFU, TNKS2 / Fold change vs veh, TNKS2 / RFU, ZFP14 / Fold change vs veh, ZFP14 / RFU, ACTR2 / Fold change vs veh, ACTR2 / RFU, PPP3R1 / Fold change vs veh, PPP3R1 / RFU, PIK3R1 / Fold change vs veh, PIK3R1 / RFU, HNRNPA1 / Fold change vs veh, HNRNPA1 / RFU, RNF170 / Fold change vs veh, RNF170 / RFU, ZNF28 / Fold change vs veh, ZNF28 / RFU, RNGTT / Fold change vs veh, RNGTT / RFU, OGT / Fold change vs veh, OGT / RFU, BRD1 / Fold change vs veh, BRD1 / RFU, MARS / Fold change vs veh, MARS / RFU, ZNF655 / Fold change vs veh, ZNF655 / RFU, FAHD1 / Fold change vs veh, FAHD1 / RFU, BDP1 / Fold change vs veh, BDP1 / RFU, LRRCC1 / Fold change vs veh, LRRCC1 / RFU, ARID1A / Fold change vs veh, ARID1A / RFU, ZNF146 / Fold change vs veh, ZNF146 / RFU, ZNF330 / Fold change vs veh, ZNF330 / RFU, GPN3 / Fold change vs veh, GPN3 / RFU, C9orf123 / Fold change vs veh, C9orf123 / RFU, N4BP2L2 / Fold change vs veh, N4BP2L2 / RFU, ARFIP1 / Fold change vs veh, ARFIP1 / RFU, FAM179B / Fold change vs veh, FAM179B / RFU, BCL10 / Fold change vs veh, BCL10 / RFU, UHRF1BP1L / Fold change vs veh, UHRF1BP1L / RFU, BET1 / Fold change vs veh, BET1 / RFU, CNOT2 / Fold change vs veh, CNOT2 / RFU, ZNF268 / Fold change vs veh, ZNF268 / Fold change vs veh, ZNF507 / RFU, DGCR2 / Fold change vs veh, DGCR2 / RFU, WDSUB1 / Fold change vs veh, WDSUB1 / Fold change vs veh, HSP90B1 /// MIR3652 / RFU, ADSS / Fold change vs veh, ADSS / RFU, GK / Fold change vs veh, GK / RFU, ZNF148 / Fold change vs veh, ZNF148 / RFU, TAF9 / Fold change vs veh, TAF9 / RFU, SLC1A5 / Fold change vs veh, SLC1A5 / RFU, SLMO2 / Fold change vs veh, SLMO2 / RFU, ABCC4 / Fold change vs veh, ABCC4 / RFU, LOC101060439 /// RAP1B / Fold change vs veh, LOC101060439 /// RAP1B / RFU, RFX7 / Fold change vs veh, RFX7 / RFU, GTPBP10 / Fold change vs veh, GTPBP10 / RFU, CNEP1R1 / Fold change vs veh, CNEP1R1 / RFU, BIVM-ERCC5 /// ERCC5 / Fold change vs veh, BIVM-ERCC5 /// ERCC5 / RFU, ILF3 / Fold change vs veh, ILF3 / RFU 11762660_at / Fold change /veh 11762660_at / RFU VCAN (11757783_s_at) / Fold change /veh VCAN (11757783_s_at) / RFU DDX43 (11728927_at) / Fold change /veh DDX43 (11728927_at) / RFU KRT8 (11758188_x_at) / Fold change /veh KRT8 (11758188_x_at) / RFU NKD1 (11759106_at) / Fold change /veh NKD1 (11759106_at) / RFU SRD5A1 (11742802_a_at) / Fold change /veh SRD5A1 (11742802_a_at) / RFU TPSAB1 /// TPSB2 (11721975_s_at) / Fold change /veh TPSAB1 /// TPSB2 (11721975_s_at) / RFU GSTM3 (11746129_a_at) / Fold change /veh GSTM3 (11746129_a_at) / RFU IL23R (11737362_x_at) / Fold change /veh IL23R (11737362_x_at) / RFU TMEM51 (11727254_a_at) / Fold change /veh TMEM51 (11727254_a_at) / RFU PIWIL2 (11732686_x_at) / Fold change /veh PIWIL2 (11732686_x_at) / RFU ORM1 (11744905_x_at) / Fold change /veh ORM1 (11744905_x_at) / RFU CCDC152 (11743942_at) / Fold change /veh CCDC152 (11743942_at) / RFU ECM1 (11717891_a_at) / Fold change /veh ECM1 (11717891_a_at) / RFU IL23R (11748794_a_at) / Fold change /veh IL23R (11748794_a_at) / RFU TNFAIP8L3 (11732012_x_at) / Fold change /veh TNFAIP8L3 (11732012_x_at) / RFU MBOAT4 (11741988_at) / Fold change /veh MBOAT4 (11741988_at) / RFU 11764193_at / Fold change /veh 11764193_at / RFU TMEM53 (11763286_at) / Fold change /veh TMEM53 (11763286_at) / RFU MAGEB2 (11727129_at) / Fold change /veh MAGEB2 (11727129_at) / RFU TMEM200A (11744735_a_at) / Fold change /veh TMEM200A (11744735_a_at) / RFU CCDC152 (11751479_a_at) / Fold change /veh CCDC152 (11751479_a_at) / RFU FAM211A (11726209_a_at) / Fold change /veh FAM211A (11726209_a_at) / RFU RGS16 (11746705_a_at) / Fold change /veh RGS16 (11746705_a_at) / RFU VCAN (11755009_s_at) / Fold change /veh VCAN (11755009_s_at) / RFU RHOB (11743442_s_at) / Fold change /veh RHOB (11743442_s_at) / RFU RGS16 (11720943_a_at) / Fold change /veh RGS16 (11720943_a_at) / RFU RGS16 (11720944_at) / Fold change /veh RGS16 (11720944_at) / RFU, VPS4B / Fold change vs veh, VPS4B / RFU, CREB1 / Fold change vs veh, CREB1 / RFU, DNAJC13 / Fold change vs veh, DNAJC13 / RFU, GNAQ / Fold change vs veh, GNAQ / RFU, CDK5R1 / Fold change vs veh, CDK5R1 / RFU, ZRANB3 / Fold change vs veh, ZRANB3 / RFU, CUL4A / Fold change vs veh, CUL4A / RFU, CCNY / Fold change vs veh, CCNY / RFU, UFL1 / Fold change vs veh, UFL1 / RFU, COG3 / Fold change vs veh, COG3 / RFU, DIAPH2 / Fold change vs veh, DIAPH2 / RFU, SKA2 / Fold change vs veh, SKA2 / RFU, AFF3 / Fold change vs veh, AFF3 / RFU, LMF1 / Fold change vs veh, LMF1 / RFU, IPO11 / Fold change vs veh, IPO11 / RFU, DFFB / Fold change vs veh, DFFB / RFU, FOXP1 / Fold change vs veh, FOXP1 / RFU, CARD8 / Fold change vs veh, CARD8 / RFU, STRN3 / Fold change vs veh, STRN3 / RFU, ADK / Fold change vs veh, ADK / RFU, RASSF2 / Fold change vs veh, RASSF2 / RFU, WIPF1 / Fold change vs veh, WIPF1 / RFU, LARP1B / Fold change vs veh, LARP1B / RFU, RASA1 / Fold change vs veh, RASA1 / RFU, RB1 / Fold change vs veh, RB1 / RFU, PPFIA1 / Fold change vs veh, PPFIA1 / RFU, MAT2A / Fold change vs veh, MAT2A / RFU, CCT5 / Fold change vs veh, CCT5 / RFU, WDR92 / Fold change vs veh, WDR92 / RFU, CUX1 / Fold change vs veh, CUX1 / RFU, TTC7A / Fold change vs veh, TTC7A / RFU, TMEM135 / Fold change vs veh, TMEM135 / RFU, DEPTOR / Fold change vs veh, DEPTOR / RFU, CPM / Fold change vs veh, CPM / RFU, DNAJB6 / Fold change vs veh, DNAJB6 / RFU, CACNA2D3 / Fold change vs veh, CACNA2D3 / RFU, DTX4 / Fold change vs veh, DTX4 / RFU, TFCP2 / Fold change vs veh, TFCP2 / RFU, GMCL1 /// GMCL1P1 / Fold change vs veh, GMCL1 /// GMCL1P1 / RFU, AEBP2 / Fold change vs veh, AEBP2 / RFU, SNHG1 /// SNORD22 /// SNORD25 /// SNORD26 /// SNORD27 /// SNORD28 /// SNORD29 /// SNORD31 / Fold change vs veh, SNHG1 /// SNORD22 /// SNORD25 /// SNORD26 /// SNORD27 /// SNORD28 /// SNORD29 /// SNORD31 / Fold change (Aza/veh), C12orf56 (ProbeSet 11735607_a_at) / Fold change (ACY-1035/veh), C12orf56 (ProbeSet 11735607_a_at) / Fold change (Aza/veh), FGFR1OP (ProbeSet 11751329_s_at) / Fold change (ACY-1035/veh), FGFR1OP (ProbeSet 11751329_s_at) / Fold change (Aza/veh), VPS36 (ProbeSet 11739960_a_at) / Fold change (ACY-1035/veh), VPS36 (ProbeSet 11739960_a_at) / RFU SYPL1 (11715823_x_at) / Fold change /veh SYPL1 (11715823_x_at) / RFU IGFBP7 (11715501_s_at) / Fold change /veh IGFBP7 (11715501_s_at) / RFU REEP3 (11722064_at) / Fold change /veh REEP3 (11722064_at) / RFU IGLL1 (11728026_x_at) / Fold change /veh IGLL1 (11728026_x_at): dose or concentration left out as unconfirmed.

With `Nc1ncn([C@@H]2O[C@H](CO)[C@@H](O)[C@H]2O)c(=O)n1` [azacitidine], the “RFU, CUL4A” value amounted to 406.78 RFU.
